From patent US9227971B2, “Pyrazolo[1,5-a]pyrimidine compounds as mTOR inhibitors” (Merck Sharp & Dohme Corp., priority 2010, dated 2016)
Read-outs that look alike come from different tables or passages of the source.

Assays:
[1] = test system: phosphorylated 4E-BP1 Thr37/46 (p4E-BP1 Thr37/46), mTORC1 activity, PC3 cells; assay: mTOR target engagement assay, immunofluorescent cell-based, p4E-BP1 Thr37/46 readout (mTORC1 activity); conditions: read-out: p4E-BP1 Thr37/46 IC50
Procedure, shortened: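 Cell-based immunofluorescence in PC3 cells: serially diluted compounds (0.25% DMSO, 5% FBS) applied for ninety minutes at 37° C before fixation and overnight 4° C staining of p4E-BP1 Thr37/46. Untreated DMSO wells set maximal phosphorylation; IC50 obtained by logistic fitting.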

[2] = test system: phosphorylated AKT Ser473 (pAKT S473), mTORC2 activity, PC3 cells; assay: mTOR target engagement assay, immunofluorescent cell-based, pAKT S473 readout (mTORC2 activity)
Procedure, shortened: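 After blocking, cells were stained overnight at 4 °C with anti-pAKT S473 antibody, then a fluorescent secondary; inhibition was read as reduced fluorescence intensity.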

[3] = Homo sapiens, PC-3, Table 3-1, PC3 cells
[4] = Homo sapiens, PC-3, PC3 cells, compound treatment ninety minutes at 37° C.

Row | SMILES | IC50 [1, 3] | IC50 [2, 3] | IC50 [1, 4] | IC50 [2, 4] | other results
1 | CS(=O)(=O)c1c([C@@H]2C[C@H]3CC[C@@H](C2)N3C(=O)c2cc(N)n[nH]2)nc2c(-c3ccc(-c4ccc(F)cc4)nc3)cnn2c1N [Compound 3.120, (3-amino-1H-pyrazol-5-yl)((1R,3s,5S)-3-(7-amino-3-(6-(4-fluorophenyl)pyridin-3-yl)-6-(methylsulfonyl)pyrazolo[1,5-a]pyrimidin-5-yl)-8-azabicyclo[3.2.1]octan-8-yl)methanone] | – | – | – | – | IC50 ([1]; Table 3-1, PC3 cells): 0.001 to 0.1 µM; IC50 ([2]; Table 3-1, PC3 cells): 0.001 to 0.1 µM
2 | COc1ccc(-c2ncc(-c3cnn4c(N)c(S(C)(=O)=O)c([C@@H]5C[C@H]6CC[C@@H](C5)N6C(=O)c5nnc[nH]5)nc34)cn2)c(F)c1F [Compound 3.148, ((1R,3s,5S)-3-(7-amino-3-(2-(2,3-difluoro-4-methoxyphenyl)pyrimidin-5-yl)-6-(methylsulfonyl)pyrazolo[1,5-a]pyrimidin-5-yl)-8-azabicyclo[3.2.1]octan-8-yl)(4H-1,2,4-triazol-3-yl)methanone] | 0.1 to 1 µM | 0.1 to 1 µM | – | – | –
3 | CC(=O)c1c([C@@H]2C[C@H]3CC[C@@H](C2)N3C(=O)c2nnc(C)[nH]2)nc2c(-c3ccc(-c4ccc(F)cc4)nc3)cnn2c1N [Compound 1.1.160, 1-(7-amino-3-(6-(4-fluorophenyl)pyridin-3-yl)-5-((1R,3s,5S)-8-(5-methyl-4H-1,2,4-triazole-3-carbonyl)-8-azabicyclo[3.2.1]octan-3-yl)pyrazolo[1,5-a]pyrimidin-6-yl)ethanone] | – | – | 0.1 to 1 µM | 0.001 to 0.1 µM | –
4 | COc1ccc(-c2ccc(-c3cnn4c(N)c(S(C)(=O)=O)c([C@@H]5C[C@H]6CC[C@@H](C5)N6C(=O)c5nnc[nH]5)nc34)cn2)cn1 [Compound 3.164, ((1R,3s,5S)-3-(7-amino-3-(6′-methoxy-2,3′-bipyridin-5-yl)-6-(methylsulfonyl)pyrazolo[1,5-a]pyrimidin-5-yl)-8-azabicyclo[3.2.1]octan-8-yl)(4H-1,2,4-triazol-3-yl)methanone] | 0.1 to 1 µM | 0.1 to 1 µM | – | – | –
5 | CS(=O)(=O)c1c([C@@H]2C[C@H]3CC[C@@H](C2)N3C(=O)CO)nc2c(-c3ccc(-c4ccccc4)nc3)cnn2c1N [Compound 3.1, 1-((1R,3s,5S)-3-(7-amino-6-(methylsulfonyl)-3-(6-phenylpyridin-3-yl)pyrazolo[1,5-a]pyrimidin-5-yl)-8-azabicyclo[3.2.1]octan-8-yl)-2-hydroxyethanone] | 0.1 to 1 µM | 0.001 to 0.1 µM | – | – | –
6 | CC(=O)c1c([C@@H]2C[C@H]3CC[C@@H](C2)N3C(=O)c2nnc[nH]2)nc2c(-c3cnc4c(c3)CCCC4O)cnn2c1N (stereo partly drawn) [Compound 7.59, 1-(5-((1R,3s,5S)-8-(4H-1,2,4-triazole-3-carbonyl)-8-azabicyclo[3.2.1]octan-3-yl)-7-amino-3-(8-hydroxy-5,6,7,8-tetrahydroquinolin-3-yl)pyrazolo[1,5-a]pyrimidin-6-yl)ethanone] | – | – | – | – | IC50 ([1]; PC3 cells): 0.001 to 0.1 µM; IC50 ([2]; PC3 cells): 0.1 to 1 µM
7 | CC(=O)c1c([C@@H]2C[C@H]3CC[C@@H](C2)N3C(=O)c2nnc(C)[nH]2)nc2c(-c3ccc(C4(O)CCC4)nc3)cnn2c1N [Compound 7.17, 1-(7-amino-3-(6-(1-hydroxycyclobutyl)pyridin-3-yl)-5-((1R,3s,5S)-8-(3-methyl-1H-1,2,4-triazole-5-carbonyl)-8-azabicyclo[3.2.1]octan-3-yl)pyrazolo[1,5-a]pyrimidin-6-yl)ethanone] | – | – | 0.1 to 1 µM | 0.1 to 1 µM | –
8 | CC(=O)c1c([C@@H]2C[C@H]3CC[C@@H](C2)N3C(=O)c2nnc[nH]2)nc2c(-c3cnn(-c4ccc(F)cc4)c3)cnn2c1N [Compound 1.1.123, 1-(5-((1R,3s,5S)-8-(4H-1,2,4-triazole-3-carbonyl)-8-azabicyclo[3.2.1]octan-3-yl)-7-amino-3-(1-(4-fluorophenyl)-1H-pyrazol-4-yl)pyrazolo[1,5-a]pyrimidin-6-yl)ethanone] | – | – | 1 to 10 µM | 0.1 to 1 µM | –
9 | CS(=O)(=O)c1c([C@@H]2C[C@H]3CC[C@@H](C2)N3C(=O)c2nnc[nH]2)nc2c(-c3ccc(-c4nccs4)nc3)cnn2c1N [Compound 3.24, ((1R,3s,5S)-3-(7-amino-6-(methylsulfonyl)-3-(6-(thiazol-2-yl)pyridin-3-yl)pyrazolo[1,5-a]pyrimidin-5-yl)-8-azabicyclo[3.2.1]octan-8-yl)(4H-1,2,4-triazol-3-yl)methanone] | 0.001 to 0.1 µM | 0.001 to 0.1 µM | – | – | –
10 | COc1ccc(-c2ccc(-c3cnn4c(N)c(S(C)(=O)=O)c([C@@H]5C[C@H]6CC[C@@H](C5)N6C(=O)CO)nc34)cn2)cc1F [Compound 3.38, 1-((1R,3s,5S)-3-(7-amino-3-(6-(3-fluoro-4-methoxyphenyl)pyridin-3-yl)-6-(methylsulfonyl)pyrazolo[1,5-a]pyrimidin-5-yl)-8-azabicyclo[3.2.1]octan-8-yl)-2-hydroxyethanone] | 0.1 to 1 µM | 0.001 to 0.1 µM | – | – | –
11 | CS(=O)(=O)c1c([C@@H]2C[C@H]3CC[C@@H](C2)N3C(=O)[C@@H]2CCCN2)nc2c(-c3ccc(-c4ccccc4)nc3)cnn2c1N [Compound 3.206, ((1R,3R,5S)-3-(7-amino-6-(methylsulfonyl)-3-(6-phenylpyridin-3-yl)pyrazolo[1,5-a]pyrimidin-5-yl)-8-azabicyclo[3.2.1]octan-8-yl)((S)-pyrrolidin-2-yl)methanone] | 1 to 10 µM | 1 to 10 µM | – | – | –
12 | CS(=O)(=O)c1c([C@@H]2C[C@H]3CC[C@@H](C2)N3C(=O)c2nnc[nH]2)nc2c(-c3ccc(C4(N)CC4)c(F)c3)cnn2c1N [Compound 8.44, ((1R,3s,5S)-3-(7-amino-3-(4-(1-aminocyclopropyl)-3-fluorophenyl)-6-(methylsulfonyl)pyrazolo[1,5-a]pyrimidin-5-yl)-8-azabicyclo[3.2.1]octan-8-yl)(4H-1,2,4-triazol-3-yl)methanone] | – | – | – | – | IC50 ([1]; Homo sapiens, PC-3, PC3 cells): 1 to 10 µM; IC50 ([2]; Homo sapiens, PC-3, PC3 cells): 1 to 10 µM
13 | Cc1cnc(-c2ccc(-c3cnn4c(N)c(S(C)(=O)=O)c([C@@H]5C[C@H]6CC[C@@H](C5)N6C(=O)C5(O)CC5)nc34)cn2)s1 [Compound 3.186, ((1R,3s,5S)-3-(7-amino-6-(methylsulfonyl)-3-(6-(5-methylthiazol-2-yl)pyridin-3-yl)pyrazolo[1,5-a]pyrimidin5-yl)-8-azabicyclo[3.2.1]octan-8-yl)(1-hydroxycyclopropyl)methanone] | 1 to 10 µM | 1 to 10 µM | – | – | –
14 | COc1ccc(-c2ccc(-c3cnn4c(N)c(S(C)(=O)=O)c([C@@H]5C[C@H]6CC[C@@H](C5)N6C(=O)c5nnc[nH]5)nc34)cn2)c(F)c1F [Compound 3.54, ((1R,3s,5S)-3-(7-amino-3-(6-(2,3-difluoro-4-methoxyphenyl)pyridin-3-yl)-6-(methylsulfonyl)pyrazolo[1,5-a]pyrimidin-5-yl)-8-azabicyclo[3.2.1]octan-8-yl)(4H-1,2,4-triazol-3-yl)methanone] | 0.001 to 0.1 µM | 0.001 to 0.1 µM | – | – | –
15 | CC(=O)c1c([C@@H]2C[C@H]3CC[C@@H](C2)N3C(=O)C(C)(CO)CO)nc2c(-c3ccc(-c4ccn(C)n4)nc3)cnn2c1N [Compound 1.1.56, 1-((1R,3s,5S)-3-(6-acetyl-7-amino-3-(6-(1-methyl-1H-pyrazol-3-yl)pyridin-3-yl)pyrazolo[1,5-a]pyrimidin-5-yl)-8-azabicyclo[3.2.1]octan-8-yl)-3-hydroxy-2-(hydroxymethyl)-2-methylpropan-1-one] | – | – | 0.1 to 1 µM | 0.1 to 1 µM | –
16 | CS(=O)(=O)c1c([C@@H]2C[C@H]3CC[C@@H](C2)N3C(=O)CO)nc2c(-c3ccc(-c4ccccc4F)nc3)cnn2c1N [Compound 3.132, 1-((1R,3a,5S)-3-(7-amino-3-(6-(2-fluorophenyl)pyridin-3-yl)-6-(methylsulfonyl)pyrazolo[1,5-a]pyrimidin-5-yl)-8-azabicyclo[3.2.1]octan-8-yl)-2-hydroxyethanone] | 0.1 to 1 µM | 0.001 to 0.1 µM | – | – | –
17 | CC(=O)C(=O)N1[C@@H]2CC[C@H]1C[C@H](c1nc3c(-c4ccc(-c5ccccc5)nc4)cnn3c(N)c1C(C)=O)C2 [Compound 1.1.117, 1-((1R,3s,5S)-3-(6-acetyl-7-amino-3-(6-phenylpyridin-3-yl)pyrazolo[1,5-a]pyrimidin-5-yl)-8-azabicyclo[3.2.1]octan-8-yl)propane-1,2-dione] | – | – | 0.1 to 1 µM | 0.1 to 1 µM | –
18 | CC(=O)c1c([C@@H]2C[C@H]3CC[C@@H](C2)N3C(=O)c2nnc[nH]2)nc2c(-c3cnc(C(C)(C)O)c(Cl)c3)cnn2c1N [Compound 1.1.181, 1-(5-((1R,3s,5S)-8-(4H-1,2,4-triazole-3-carbonyl)-8-azabicyclo[3.2.1]octan-3-yl)-7-amino-3-(5-chloro-6-(2-hydroxypropan-2-yl)pyridin-3-yl)pyrazolo[1,5-a]pyrimidin-6-yl)ethanone] | – | – | 0.001 to 0.1 µM | 0.001 to 0.1 µM | –
19 | CC(=O)c1c([C@@H]2C[C@H]3CC[C@@H](C2)N3C(=O)c2nnc[nH]2)nc2c(-c3ccc(N)nc3)cnn2c1N [Compound 8.48, 1-(5-((1R,3s,5S)-8-(4H-1,2,4-triazole-3-carbonyl)-8-azabicyclo[3.2.1]octan-3-yl)-7-amino-3-(6-aminopyridin-3-yl)pyrazolo[1,5-a]pyrimidin-6-yl)ethanone] | – | – | – | – | IC50 ([1]; Homo sapiens, PC-3, PC3 cells): 0.001 to 0.1 µM; IC50 ([2]; Homo sapiens, PC-3, PC3 cells): 0.001 to 0.1 µM
